Assay: xn = mol fraction of the nth substance listed

CCCCCCCCCCCCCC[P+](CCCCCC)(CCCCCC)CCCCCC.c1c[n-]nn1 + CCCCn1cc[n+](C)c1.O=S(=O)([N-]S(=O)(=O)C(F)(F)F)C(F)(F)F
viscosity [mPa·s], 100 kPa
Conditions | 293.15 K | 298.15 K | 303.15 K | 308.15 K | 313.15 K | 318.15 K | 323.15 K
x1 = 0.1 | 98 | 77 | 61 | 49 | – | – | –
x1 = 0.2 | 164 | 123 | 96 | 76 | 62 | 50 | –
x1 = 0.278 | 242 | 178 | 135 | 107 | 84 | 68 | 56
x1 = 0.612 | 602 | 428 | 311 | 231 | 174 | 135 | 107
x1 = 0.699 | 663 | 468 | 339 | 252 | 190 | 147 | 115
x1 = 0.8 | 723 | 507 | 368 | 273 | 205 | 158 | 125
x1 = 0.9 | 685 | 486 | 353 | 263 | 199 | 154 | 123

CCC(=O)O + CCCO
308.15 K, 101 kPa
Conditions | viscosity [mPa·s]
x1 = 0.0416 | 1.42
x1 = 0.084 | 1.443
x1 = 0.1244 | 1.439
x1 = 0.1683 | 1.368
x1 = 0.2579 | 1.351
x1 = 0.3504 | 1.328
x1 = 0.4481 | 1.289
x1 = 0.5489 | 1.242
x1 = 0.6538 | 1.178
x1 = 0.7644 | 1.096
x1 = 0.8223 | 1.055
x1 = 0.8798 | 1.006
x1 = 0.9384 | 0.9669

O=C(O)c1ccccc1O + CCCO
viscosity [mPa·s]
Conditions | 308.15 K | 313.15 K | 318.15 K | 323.15 K
101 kPa, x1 = 0.133 | 2.13 | – | – | 1.51
101 kPa, x1 = 0.16 | 2.236 | – | – | 1.602
101 kPa, x1 = 0.179 | 2.427 | – | – | 1.69
101 kPa, x1 = 0.191 | 2.4 | – | – | 1.722
101.33 kPa, x1 = 0.16 | 2.236 | 2.012 | 1.791 | 1.602
101.33 kPa, x1 = 0.19 | – | 2.17 | 1.929 | 1.722

CCC(=O)O + CCO
308.15 K, 101 kPa
Conditions | viscosity [mPa·s]
x1 = 0.0674 | 1.035
x1 = 0.1373 | 1.062
x1 = 0.2156 | 1.095
x1 = 0.2983 | 1.125
x1 = 0.3898 | 1.151
x1 = 0.4885 | 1.167
x1 = 0.5987 | 1.16
x1 = 0.7173 | 1.119
x1 = 0.7834 | 1.081
x1 = 0.8532 | 1.043
x1 = 0.9225 | 0.9581

Nc1cccc(Cl)c1 + CCOCCO
303.15 K, 101 kPa
Conditions | viscosity [mPa·s]
x1 = 0.0966 | 2.028
x1 = 0.1696 | 2.159
x1 = 0.2725 | 2.333
x1 = 0.3613 | 2.473
x1 = 0.4791 | 2.643
x1 = 0.5648 | 2.755
x1 = 0.68 | 2.897
x1 = 0.7804 | 3.008
x1 = 0.8884 | 3.121

CC(=O)CCC(=O)O + CC[N+](CC)(CC)CC.[Br-]
101 kPa, x1 = 0.75
Conditions | viscosity [mPa·s]
293.15 K | 149
303.15 K | 76.98
313.15 K | 42.42
323.15 K | 28.81

CCC(=O)O + CCc1ccccc1
308.15 K, 101.33 kPa
Conditions | viscosity [mPa·s]
x1 = 0.1393 | 0.5916
x1 = 0.2634 | 0.6031
x1 = 0.3813 | 0.6196
x1 = 0.4881 | 0.6386
x1 = 0.5891 | 0.6621
x1 = 0.6835 | 0.6881
x1 = 0.7694 | 0.721
x1 = 0.8518 | 0.7666
x1 = 0.9275 | 0.8175

CCC(=O)O + CO
308.15 K, 101 kPa
Conditions | viscosity [mPa·s]
x1 = 0.0467 | 0.5336
x1 = 0.0975 | 0.5843
x1 = 0.157 | 0.6175
x1 = 0.2234 | 0.6789
x1 = 0.3021 | 0.7413
x1 = 0.3923 | 0.8094
x1 = 0.5024 | 0.9055
x1 = 0.6344 | 0.9763
x1 = 0.7111 | 1.021
x1 = 0.7964 | 0.9955
x1 = 0.8919 | 0.9369

O=C(O)c1ccccc1O + CO
viscosity [mPa·s]
Conditions | 308.15 K | 313.15 K | 318.15 K | 323.15 K
101 kPa, x1 = 0.13 | 1.049 | – | – | 0.8273
101 kPa, x1 = 0.14 | 1.086 | – | – | 0.8572
101 kPa, x1 = 0.15 | 1.118 | – | – | 0.8818
101 kPa, x1 = 0.17 | 1.262 | – | – | 0.9692
101.33 kPa, x1 = 0.13 | 1.049 | 0.9732 | 0.8932 | 0.8273
101.33 kPa, x1 = 0.15 | 1.118 | 1.036 | 0.9552 | 0.8818

CC12CCC(CC1)C(C)(C)O2 + COC(C)(C)C
298.15 K, 101.33 kPa
Conditions | viscosity [mPa·s]
x2 = 0.039 | 2.365
x2 = 0.1663 | 1.833
x2 = 0.2659 | 1.491
x2 = 0.379 | 1.188
x2 = 0.4562 | 1.02
x2 = 0.5768 | 0.7958
x2 = 0.6621 | 0.6632
x2 = 0.7385 | 0.5702
x2 = 0.8408 | 0.4604
x2 = 0.902 | 0.4049
x2 = 0.9701 | 0.3547

Nc1cccc(Cl)c1 + COCCO
303.15 K, 101 kPa
Conditions | viscosity [mPa·s]
x1 = 0.0687 | 2.116
x1 = 0.1403 | 2.27
x1 = 0.238 | 2.434
x1 = 0.3592 | 2.586
x1 = 0.4287 | 2.72
x1 = 0.5233 | 2.844
x1 = 0.6416 | 2.949
x1 = 0.7401 | 3.05
x1 = 0.8794 | 3.143

CCCCCCCCCCCCCC[P+](CCCCCC)(CCCCCC)CCCCCC.c1c[n-]nn1 + COCCOCCOCCOCCOC
viscosity [mPa·s], 100 kPa
Conditions | 293.15 K | 298.15 K | 303.15 K | 308.15 K | 313.15 K | 318.15 K | 323.15 K
x1 = 0.499 | 80 | 65 | 53 | – | – | – | –
x1 = 0.602 | 118 | 93 | 74 | 62 | 51 | – | –
x1 = 0.69 | 172 | 134 | 106 | 85 | 69 | 57 | –
x1 = 0.793 | 250 | 190 | 147 | 116 | 93 | 76 | 63
x1 = 0.878 | 358 | 266 | 201 | 156 | 123 | 99 | 81
x1 = 0.917 | 400 | 294 | 221 | 170 | 133 | 106 | 86

CC(=O)CCC(=O)O + C[N+](C)(C)CCO.[Cl-]
viscosity [mPa·s]
Conditions | 293.15 K | 298.15 K | 303.15 K | 308.15 K | 313.15 K | 318.15 K | 323.15 K
100 kPa, x2 = 0.33 | 320.6 | 226.8 | 164.5 | 122.5 | 93.62 | 72.54 | 57.48
101 kPa, x1 = 0.75 | 134.2 | – | 79.14 | – | 47.76 | – | 31.29
101 kPa, x2 = 0.25 | – | 132.9 | – | – | – | 46.9 | –
101 kPa, x2 = 0.333 | – | 207.8 | – | – | – | 68 | –

CCC(=O)O + C[N+](C)(C)CCO.[Cl-]
101 kPa, x2 = 0.333
Conditions | viscosity [mPa·s]
293.15 K | 70.98
298.15 K | 55.91
303.15 K | 44.79
308.15 K | 36.45
313.15 K | 30.06
318.15 K | 25.09
323.15 K | 21.19

CC12CCC(CC1)C(C)(C)O2 + Cc1ccc(O)cc1
viscosity [mPa·s], 101 kPa
Conditions | x1 = 0.065 | x1 = 0.1353 | x1 = 0.2115 | x1 = 0.2943 | x1 = 0.3849 | x1 = 0.4841 | x1 = 0.5935 | x1 = 0.7145 | x1 = 0.8492
303.15 K | 10.05 | 10.4 | 10.3 | 9.855 | 8.969 | 7.588 | 6 | 4.552 | 3.36
308.15 K | 8.061 | 8.368 | 8.359 | 8.056 | 7.332 | 6.325 | 5.03 | 3.799 | 2.854
313.15 K | 6.612 | 6.841 | 6.808 | 6.617 | 6.12 | 5.364 | 4.313 | 3.244 | 2.467

CC12CCC(CC1)C(C)(C)O2 + Cc1cccc(O)c1
viscosity [mPa·s], 101 kPa
Conditions | x1 = 0.065 | x1 = 0.1352 | x1 = 0.2114 | x1 = 0.2943 | x1 = 0.3848 | x1 = 0.4841 | x1 = 0.5934 | x1 = 0.7145 | x1 = 0.8492
303.15 K | 10.48 | 10.69 | 10.47 | 9.802 | 8.746 | 7.564 | 6.28 | 4.91 | 3.559
308.15 K | 8.331 | 8.539 | 8.426 | 7.994 | 7.155 | 6.222 | 5.16 | 4.043 | 3.002
313.15 K | 6.756 | 6.947 | 6.878 | 6.474 | 5.892 | 5.161 | 4.295 | 3.348 | 2.505

CCC(=O)O + Cc1ccccc1
viscosity [mPa·s], 101.33 kPa
Conditions | 293.15 K | 303.15 K | 308.15 K | 313.15 K | 323.15 K
x1 = 0.1231 | – | – | 0.5358 | – | –
x1 = 0.2366 | – | – | 0.5532 | – | –
x1 = 0.3487 | – | – | 0.5721 | – | –
x1 = 0.4523 | – | – | 0.597 | – | –
x1 = 0.5546 | – | – | 0.6271 | – | –
x1 = 0.6523 | – | – | 0.6628 | – | –
x1 = 0.7435 | – | – | 0.702 | – | –
x1 = 0.832 | – | – | 0.7411 | – | –
x1 = 0.9187 | – | – | 0.8128 | – | –
x2 = 0.0286 | 1.06 | 0.9144 | – | 0.8218 | 0.7431
x2 = 0.072 | 1.009 | 0.8713 | – | 0.7818 | 0.6965
x2 = 0.1175 | 0.967 | 0.8298 | – | 0.751 | 0.672
x2 = 0.1497 | 0.9304 | 0.7997 | – | 0.7176 | 0.6478
x2 = 0.2309 | 0.8623 | 0.7424 | – | 0.6663 | 0.5978
x2 = 0.3182 | 0.806 | 0.6911 | – | 0.6194 | 0.5682
x2 = 0.4118 | 0.7554 | 0.6539 | – | 0.5909 | 0.5342
x2 = 0.5137 | 0.7079 | 0.6205 | – | 0.5536 | 0.5047
x2 = 0.555 | 0.6938 | 0.6095 | – | 0.5469 | 0.4952
x2 = 0.6209 | 0.6768 | 0.5898 | – | 0.5292 | 0.4824
x2 = 0.6913 | 0.6606 | 0.5743 | – | 0.5131 | 0.4666
x2 = 0.7372 | 0.6419 | 0.5603 | – | 0.5035 | 0.4574
x2 = 0.787 | 0.6276 | 0.5507 | – | 0.494 | 0.4506
x2 = 0.8644 | 0.6088 | 0.5364 | – | 0.4799 | 0.4372
x2 = 0.9714 | 0.5928 | 0.5259 | – | 0.4684 | 0.4295

CCCCCCCN + Cc1ccccc1
303.15 K, 101 kPa
Conditions | viscosity [mPa·s]
x2 = 0.1243 | 0.8161
x2 = 0.2792 | 0.7217
x2 = 0.4418 | 0.6387
x2 = 0.5561 | 0.5933
x2 = 0.5995 | 0.58
x2 = 0.7025 | 0.5493
x2 = 0.7845 | 0.5305
x2 = 0.875 | 0.5139
x2 = 0.939 | 0.5173

— the CheMixHub viscosity set
